Reference: the CheMixHub viscosity set
± gives the uncertainty stated by the source.

Experiment: xn = mol fraction of the nth substance listed

COCCO + CCC(C)O
viscosity [mPa·s]
Details	298.15 K	303.15 K	313.15 K
100 kPa, x1 = 0.1007	2.54 ± 0.05	–	1.61 ± 0.03
100 kPa, x1 = 0.202	2.2 ± 0.05	–	1.46 ± 0.03
100 kPa, x1 = 0.3022	1.98 ± 0.04	–	1.36 ± 0.03
100 kPa, x1 = 0.4018	1.83 ± 0.04	–	1.29 ± 0.03
100 kPa, x1 = 0.5022	1.73 ± 0.04	–	1.24 ± 0.03
100 kPa, x1 = 0.6017	1.66 ± 0.03	–	1.21 ± 0.03
100 kPa, x1 = 0.701	1.61 ± 0.03	–	1.19 ± 0.03
100 kPa, x1 = 0.8006	1.58 ± 0.03	–	1.18 ± 0.03
100 kPa, x1 = 0.9006	1.56 ± 0.03	–	1.18 ± 0.03
101.3 kPa, x1 = 0.1228	–	2.584 ± 0.03	–
101.3 kPa, x1 = 0.209	–	2.261 ± 0.026	–
101.3 kPa, x1 = 0.3377	–	1.898 ± 0.022	–
101.3 kPa, x1 = 0.428	–	1.714 ± 0.02	–
101.3 kPa, x1 = 0.5977	–	1.488 ± 0.017	–
101.3 kPa, x1 = 0.6442	–	1.45 ± 0.017	–
101.3 kPa, x1 = 0.7067	–	1.411 ± 0.016	–
101.3 kPa, x1 = 0.8447	–	1.368 ± 0.016	–
101.3 kPa, x1 = 0.9188	–	1.308 ± 0.1	–

CCCC(C)O (stereo not given) + CCCCCC
viscosity [mPa·s], 101.33 kPa
Details	x1 = 0.1	x1 = 0.2	x1 = 0.3	x1 = 0.4	x1 = 0.5	x1 = 0.6	x1 = 0.7	x1 = 0.8	x1 = 0.9
303 K	0.28 ± 0.007	0.31 ± 0.008	0.382 ± 0.01	0.537 ± 0.014	0.682 ± 0.017	0.878 ± 0.022	1.228 ± 0.031	1.588 ± 0.041	1.965 ± 0.051
313 K	0.249 ± 0.006	0.277 ± 0.007	0.36 ± 0.009	0.44 ± 0.011	0.544 ± 0.014	0.802 ± 0.02	0.967 ± 0.025	1.21 ± 0.031	1.484 ± 0.038
323 K	0.228 ± 0.006	0.254 ± 0.006	0.31 ± 0.008	0.385 ± 0.01	0.472 ± 0.012	0.634 ± 0.016	0.805 ± 0.02	0.981 ± 0.025	1.138 ± 0.029

CCCC(C)O (stereo not given) + CCCCCCC
101 kPa
Details	viscosity [mPa·s]
293.8 K, x1 = 0.5	0.771 ± 0.051
295.1 K, x1 = 0.051	0.477 ± 0.035

CC(CC(C)(C)C)CC(C)(C)CC(C)(C)C (stereo not given) + CCCCCCCCCCCC
Details	viscosity [mPa·s]
323.15 K, 100 kPa, x1 = 0.279	1.09 ± 0.045

CC(CC(C)(C)C)CC(C)(C)CC(C)(C)C (stereo not given) + CCCCCCCCCCCCC
viscosity [mPa·s], 100 kPa
Details	x2 = 0.125	x2 = 0.25	x2 = 0.375	x2 = 0.5	x2 = 0.625	x2 = 0.75	x2 = 0.875
293.15 K	3.28 ± 0.15	2.98 ± 0.14	2.69 ± 0.12	2.49 ± 0.11	2.29 ± 0.1	2.14 ± 0.1	1.98 ± 0.09
303.15 K	2.65 ± 0.12	2.39 ± 0.11	2.18 ± 0.1	2.07 ± 0.09	1.89 ± 0.09	1.76 ± 0.08	1.64 ± 0.07
313.15 K	2.15 ± 0.1	1.96 ± 0.09	1.79 ± 0.08	1.71 ± 0.08	1.57 ± 0.07	1.47 ± 0.07	1.39 ± 0.06
323.15 K	1.79 ± 0.08	1.63 ± 0.07	1.51 ± 0.07	1.43 ± 0.06	1.33 ± 0.06	1.25 ± 0.06	1.18 ± 0.05
